Patent publication US4563467A, “Derivatives of N-iminopyridinium betaines having anti-hypertensive and salidiuretic activity and their preparation” (Provesan S.A., priority 1983, dated 1986)
Counter-ions that a name gives are not always drawn. Like-named read-outs stand apart in the source and are kept apart here.

Test: Diuretic activity (method of Taylor and Topliss): elimination of urine and urine parameters over 8 hours
Type: in vivo, Male Sprague-Dawley (HC/CFY) rats
Settings: rat; for ED50: po, from regression of log dose against percentage effect; for ED50 / Elimination of urine, 8 h: 8 h; for Elimination in the urine: Cl / Elimination in the urine: K / Elimination in the urine: Na / Osmotic pressure of urine / Urine pH / Elimination of urine, 1 h / Elimination of urine, 2 h / Elimination of urine, 3 h / Elimination of urine, 4 h / Elimination of urine, 6 h / Elimination of urine, 8 h: 40 mg/kg; for Elimination in the urine: Cl / Elimination in the urine: K / Elimination in the urine: Na / Osmotic pressure of urine / Urine pH: over 8 hours; for Elimination of urine, 1 h / Elimination of urine, 2 h / Elimination of urine, 3 h / Elimination of urine, 4 h / Elimination of urine, 6 h / Elimination of urine, 8 h: probang
Method: ACTIVITY Method of R. M. Taylor and […]. Med. Pharm. Chem. 1962, 4, 312 Male Sprague-Dawley (HC/CFY) rats weighting between 150 and 200 grams are used. The animals are kept without food and water for 16 hours before the start of the test. The products are administered as a suspension in a 0.5% strength carboxymethylcellulose suspension in a 0.9% strength sodium chloride solution, using a probang, the amount administered being 50 ml/kg of body weight. […] The following parameters are determined in the urine: volume (ml/kg); sodium and potassium (milliequivalents/kg/8 h) (flame photometer); chloride (milliequivalents/kg/8 h) (chloride-meter); pH/8 h (pH-meter) and osmotic pressure (osmotic millimols/kg/8 h) (osmometer). The comparsion animals are given the 0.5% strength carboxymethylcellulose suspension in a 0.9% strength sodium chloride solution in an amount of […] of body weight.

[1] = read-out: ED50, osmotic pressure (m osmol/kg/8 h)
[2] = read-out: ED50, volume of urine (ml/kg/8 h)

SMILES | ED50 [1] [mg/kg] | ED50 [2] [mg/kg] | Elimination in the urine: Cl [milliequivalents/kg/8 h] | Elimination in the urine: K [milliequivalents/kg/8 h] | Elimination in the urine: Na [milliequivalents/kg/8 h] | Osmotic pressure of urine [osmotic millimols/kg/8 h] | Urine pH | Elimination of urine, 1 h [mL/kg] | Elimination of urine, 2 h [mL/kg] | Elimination of urine, 3 h [mL/kg] | Elimination of urine, 4 h [mL/kg] | Elimination of urine, 6 h [mL/kg] | Elimination of urine, 8 h [mL/kg]
NS(=O)(=O)c1cc(C2(O)NC(=O)c3ccccc32)ccc1Cl (centres unmarked) [Chlortalidone, reference compound] | 7.7 | 6.9 | 10.8 | 1.9 | 9.3 | 29.9 | 6.6 | 8.7 | 21.0 | 30.9 | 37.6 | 45.6 | 49.8
NS(=O)(=O)c1cc(C(=O)[N-][n+]2ccccc2)ccc1Cl [Example 1, 1-[(4-chloro-3-sulfamylbenzoyl)-amino]pyridinium hydroxide inner salt] | 1.9 | 4.1 | 9.2 | 1.5 | 8.3 | 25.5 | 6.6 | 7.3 | 15.2 | 27.6 | 35.4 | 40.5 | 44.5
Cc1cccc(C)[n+]1[N-]C(=O)c1ccc(Cl)c(S(N)(=O)=O)c1 [Example 3, 1-[(4-chloro-3-sulfamylbenzoyl)-amino]-2,6-dimethylpyridinium hydroxide inner salt] | 2.1 | 4.6 | 11.7 | 1.8 | 9.5 | 34.2 | 6.1 | 8.4 | 22.9 | 31.9 | 36.7 | 45.2 | 50.7
NC(=O)c1ccc[n+]([N-]C(=O)c2ccc(Cl)c(S(N)(=O)=O)c2)c1 [Example 4, 1-[(4-chloro-3-sulfamylbenzoyl)-amino]-3-carbamylpyridinium hydroxide inner salt] | – | – | 7.0 | 1.1 | 6.6 | 20.8 | 6.2 | 5.8 | 8.6 | 19.5 | 24.2 | 31.1 | 37.5
Cc1cc(C)[n+]([N-]C(=O)c2cc(S(N)(=O)=O)c(Cl)cc2NCc2ccco2)c(C)c1 [Example 5, 1-{[4-chloro-2-(2-furylmethylamino)-5-sulfamylbenzoyl]-amino}-2,4,6-trimethylpyridinium hydroxide inner salt] | – | – | 6.2 | 1.3 | 3.0 | 16.6 | 6.1 | 1.1 | 3.4 | 8.0 | 12.5 | 18.4 | 20.7
NS(=O)(=O)c1cc(C(=O)[N-][n+]2c(-c3ccccc3)cc(-c3ccccc3)cc2-c2ccccc2)ccc1Cl [Example 6, 1-[(4-chloro-3-sulfamylbenzoyl)-amino]2,4,6-triphenylpyridinium hydroxide inner salt] | – | – | 8.1 | 1.1 | 6.6 | 25.3 | 6.0 | 6.9 | 14.2 | 19.4 | 22.2 | 26.0 | 27.4
Cc1cc(C)[n+](NC(=O)c2ccc(Cl)c(S(N)(=O)=O)c2)c(C)c1.[Cl-] [Example 7, 1-[(4-chloro-3-sulfamylbenzoyl)-amino]-2,4,6-trimethylpyridinium chloride] | – | – | 9.3 | 1.6 | – | 31.0 | 6.3 | 6.2 | 18.6 | 28.4 | 36.1 | 47.3 | 52.4
Cc1cc(C)[n+](NC(=O)c2cc(S(N)(=O)=O)c(Cl)cc2NCc2ccco2)c(C)c1.Cl.[Cl-] [Example 8, 1-{[4-chloro-2-(2-furylmethylamino)-5-sulfamylbenzoyl]-amino}-2,4,6-trimethylpyridinium chloride hydrochloride] | – | – | 7.2 | 1.2 | 5.9 | 23.4 | 6.7 | 0.0 | 11.9 | 19.6 | 28.5 | 34.4 | 39.2
NS(=O)(=O)c1cc(C(=O)N[n+]2c(-c3ccccc3)cc(-c3ccccc3)cc2-c2ccccc2)ccc1Cl.[Cl-] [Example 9, 1-[(4-chloro-3-sulfamylbenzoyl)-amino]-2,4,6-triphenylpyridinium chloride] | – | – | 7.5 | 1.2 | 6.0 | 25.1 | 6.2 | 5.2 | 12.6 | 16.8 | 19.0 | 21.5 | 25.3
